The IC50 is the concentration at which inhibition is half-maximal.

Counter-ions that a name gives are not always drawn. Like-named read-outs stand apart in the source and are kept apart here. Where only a bound is given, the exact number is not on record here.

For experiment [1], the target named is T1, CDK9/CycT1 (Homo sapiens (Human), UniProt P50750). The experiment is described as follows: CDK9 kinase assay, high ATP concentration (5 mM ATP). The format is biochemical. The note with it: 1.5 nM CDK9, read-out: CDK9 High ATP conc. (IC50). The method, then: (§1) Activity of CDK9 was determined in-vitro using a mobility shift assay on a Caliper LC3000 reader (Caliper/PerkinElmer), which measures fluorescence of a phosphorylated and unphosphorylated fluorescent peptide substrate and calculates a ratiometric value to determine percent turnover. Phosphorylation of the peptide in the presence and absence of the compound of interest was determined. Enzyme/substrate/adenosine triphosphate (ATP) mix (3 nM CDK9/CycT1, 6 μM ATP, 1.5 μM CDK9 peptide substrate (FITC-X-GSRTPMY-NH2 (X: epsilon aminocaproic acid)), 50 mM HEPES (pH7.2), 1 mM dithiothreitol, 0.01% tween 20, 50 μg/mL bovine serum albumin, (final assay concentration)) (5 μl) was preincubated with 2 μl of compound for 15 minutes at 25° C. Reactions were initiated with 5 μl of 24 mM MgCl2 (10 mM final assay concentration) in buffer (50 mM HEPES (pH7.2), 1 mM dithiothreitol, 0.01% tween 20, 50 μg/mL bovine serum albumin, (final assay concentration) and incubated at 25° C. for 90 minutes and reactions were stopped by addition of 5 μl of Stop mix consisting of 65 mM HEPES (pH7.2), 35.5 mM EDTA, 0.227% Coatin Reagent 3 (Caliper/PerkinElmer), and 0.003% Tween. Phosphorylated and unphosphorylated substrate was detected by a Caliper LC3000 reader (Caliper/PerkinElmer) in the presence of separation buffer consisting of 100 mM HEPES (pH7.2), 15.8 mM EDTA, 0.1% Coatin Reagent 3 (Caliper/PerkinElmer), 0.015% Brij-35, 5% DMSO, and 5.6 mM MgCl2. CDK9 enzyme was acquired from Carna Biosciences (Catalogue number 04-110), the CDK9 peptide substrate was acquired from Intonation (Boston, Mass.; Custom-made).
T1 sequence (P50750 whole entry): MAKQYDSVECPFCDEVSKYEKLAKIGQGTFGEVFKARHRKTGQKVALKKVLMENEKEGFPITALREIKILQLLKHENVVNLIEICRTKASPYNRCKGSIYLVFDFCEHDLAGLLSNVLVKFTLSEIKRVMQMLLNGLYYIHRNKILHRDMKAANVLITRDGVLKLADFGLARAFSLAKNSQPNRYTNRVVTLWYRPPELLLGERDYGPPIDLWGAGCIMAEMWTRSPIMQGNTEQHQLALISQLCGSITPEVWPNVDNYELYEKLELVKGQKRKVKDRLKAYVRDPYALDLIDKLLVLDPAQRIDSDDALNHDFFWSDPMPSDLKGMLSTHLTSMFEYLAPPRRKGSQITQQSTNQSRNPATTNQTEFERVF
T1 sequence (O60563 whole entry partner): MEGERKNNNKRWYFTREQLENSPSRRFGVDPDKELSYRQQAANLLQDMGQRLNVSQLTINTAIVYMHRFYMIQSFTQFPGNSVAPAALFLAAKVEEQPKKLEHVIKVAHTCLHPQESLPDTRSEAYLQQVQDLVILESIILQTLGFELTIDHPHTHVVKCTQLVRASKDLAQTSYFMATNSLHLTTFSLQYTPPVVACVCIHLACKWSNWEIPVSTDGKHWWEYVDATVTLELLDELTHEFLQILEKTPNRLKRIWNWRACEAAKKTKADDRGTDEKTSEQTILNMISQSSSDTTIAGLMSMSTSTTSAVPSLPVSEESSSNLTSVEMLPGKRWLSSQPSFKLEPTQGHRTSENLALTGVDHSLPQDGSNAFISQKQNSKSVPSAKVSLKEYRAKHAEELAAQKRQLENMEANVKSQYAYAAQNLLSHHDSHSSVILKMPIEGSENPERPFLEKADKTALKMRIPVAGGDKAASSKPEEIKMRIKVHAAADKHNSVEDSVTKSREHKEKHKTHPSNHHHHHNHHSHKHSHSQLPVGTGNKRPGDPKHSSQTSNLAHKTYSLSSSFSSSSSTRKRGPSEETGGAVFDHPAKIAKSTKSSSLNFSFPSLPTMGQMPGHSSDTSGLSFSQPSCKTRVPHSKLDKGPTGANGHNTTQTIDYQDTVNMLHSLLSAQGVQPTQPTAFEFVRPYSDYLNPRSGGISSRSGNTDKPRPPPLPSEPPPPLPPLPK
High ATP assays were run the same way with the following modifications: the final assay concentration of CDK9 was 1.5 nM and the final assay concentration of ATP was 5 mM.

Experiment [2] concerns phosphorylation of RNA Polymerase II (RNAPII) at the Ser2 site in MCF7 cells. The experiment is described as follows: MCF7 pSer2 RNAPII MOA assay (immunofluorescence). To be noted: 6-hr treatment, read-out: p-Ser 2 RNAPII (IC50). In kind it is cell-based. On the procedure: MCF7 pSer2 RNAPII MOA Assay
This is an immunofluorescence assay to determine the effect of CDK9 inhibitors on phosphorylation of RNA Polymerase II (RNAPII) at the Ser2 site in the breast cancer cell line, MCF7. On day one, 2500 MCF7 cells/well were seeded in 30 μl of growth media (RPMI+10% FBS+1% L-Glu+P/S) in 384-well black-wall clear-bottom plates, incubate plates overnight at 37° C. incubator. On the second day, the cells were treated with CDK9 inhibitors (7 point dose response ranging from 3 μM to 0.004 μM) using an ECHO liquid handler (Labcyte). After 6-hr treatment at 37° C. incubator, the cells were fixed with 30 µl/well 7.4% paraformaldehyde for 15 min at room temperature; the cells were washed twice with PBS, then permeabilized with 0.3% Triton X/PBS for 5 min at room temperature. After washing cells with PBS, the cells were incubated with 1:2000 diluted Anti-Ser2 Phospho-RNA pol II antibody (Covance MMS-129R) in 3% FBS/0.1% PBST overnight at 4° C. On the next day, the cells were washed twice with 0.1% PBST, then incubated with 1:1000 diluted Alexa Fluor 488 Goat-anti-mouse antibody (Life Technologies A-11001) and 1:4000 diluted DAPI at room temperature in dark. After one hour incubation, the cells were washed twice with 0.1% PBST, and once with PBS. The plates where sealed and read on an Acumen eX3 microplate cytometer (TTP Labtech) to assess phosphorylation level in each well.

In experiment [3] the target is T1, CDK9/CycT1. The experiment is described as follows: CDK9 kinase assay, ATP concentration at Km (mobility shift, Caliper LC3000). To be noted: 6 μM ATP, 3 nM CDK9/CycT1; read-out: CDK9 ATP conc. at Km (IC50). In kind it is biochemical. On the procedure: as §1
Experiment [4] deals with MV411 cells. The experiment is described as follows: MV411 caspase activity assay (Caspase-Glo 3/7). The format is cell-based. The note with it: Homo sapiens, MV4-11, 6 h, 6-hr treatment, caspase 3/7 induction. The method, then:
MV411 Caspase Activity Assay
This is a cell assay to measure the induction of caspase activity in the acute myeloid leukemia cell line, MV411 after 6-hr treatment with CDK9 inhibitors. On the first day, 3000 MV411 cells/well were seeded in 50 μl of growth media (IMDM+10% FBS+2% L-Glu+P/S) in 384-well white plates, incubate plates in 37° C. incubator overnight. […] After 6 hour incubation in 37° C. incubator, 25 μl of Caspase-Glo 3/7 reagent (Promega) per well was added into each well, and plates were incubated at room temperature for 30 min in dark. The plates were read on an Infinite M200 microplate reader (Tecan) with a 100 ms integration time.

Take `N[C@@H]1CCC[C@H](C(=O)Nc2cc(-c3cnn4c3CCCC4)c(Cl)cn2)C1` [Example 31b, (1S,3R)-3-amino-N-(5-chloro-4-(4,5,6,7-tetrahydropyrazolo[1,5-a]pyridin-3-yl)pyridin-2-yl)cyclohexanecarboxamide dihydrochloride]: the half-inhibitory concentration (IC50) amounted to 2640 nM in experiment [1]; 1800 nM in experiment [2] (Homo sapiens, MCF7, 6 h); 36 nM in experiment [3].

As to `CC(=O)N[C@@H]1CCC[C@H](C(=O)Nc2cc(-c3cnn4c3CC(C)CC4)c(Cl)cn2)C1` (single isomer, unassigned) [Example 65], the IC50 was less than 4 nM in experiment [1], 37 nM in experiment [2] and less than 3 nM in experiment [3].

In the case of `CC(=O)N[C@H]1CCC[C@@H](C(=O)Nc2cc(-c3cnn4c3CC(C)(C)C4)c(Cl)cn2)C1` [Example 43, (1R,3S)-3-acetamido-N-(5-chloro-4-(5,5-dimethyl-5,6-dihydro-4H-pyrrolo[1,2-b]pyrazol-3-yl)pyridin-2-yl)cyclohexanecarboxamide], the IC50 in experiment [2] (Homo sapiens, MCF7, 6 h) is 307 nM; in experiment [4] it was 416 nM.

`COC1CCc2c(-c3cc(NC(=O)[C@H]4CCC[C@@H](NC(C)=O)C4)ncc3Cl)cnn2C1` (single isomer, unassigned) [Example 71]: the results for the IC50 in experiment [1], in experiment [2] and in experiment [3] were 1720 nM, more than 2350 nM and 16 nM, respectively.

`CC(=O)N[C@@H]1CCC[C@H](C(=O)Nc2cc(-c3cnc4n3CC(C)(C)C4)c(Cl)cn2)C1` [Example 22, (1S,3R)-3-acetamido-N-(5-chloro-4-(6,6-dimethyl-6,7-dihydro-5H-pyrrolo[1,2-a]imidazol-3-yl)pyridin-2-yl)cyclohexanecarboxamide]: the IC50 is 36 nM in experiment [2] (Homo sapiens, MCF7, 6 h) and 54 nM in experiment [4].

Turning to `COC1CCc2c(-c3cc(NC(=O)[C@H]4CCC[C@@H](NC(C)=O)C4)ncc3Cl)cnn2C1` (single isomer, unassigned) [Example 70], the IC50 was 20 nM in experiment [1], 73 nM in experiment [2] and less than 3 nM in experiment [3].

As for `CC(=O)N[C@@H]1CCC[C@H](C(=O)Nc2cc(-c3cnn4c3C(O)C(C)(C)C4)c(Cl)cn2)C1` (single isomer, unassigned) [Example 80], the IC50 in experiment [1] turned out to be 135 nM; in experiment [2], 247 nM; in experiment [3] it was 4 nM.

For the compound `CC(=O)N[C@@H]1CCC[C@H](C(=O)Nc2cc(-c3cnn4c3C(O)C(C)(C)C4)c(Cl)cn2)C1` (single isomer, unassigned) [Example 79], the IC50 in experiment [1] was less than 3 nM; in experiment [2], 10 nM; in experiment [3], less than 3 nM.

On to `CC(=O)N[C@H]1CCC[C@H](C(=O)Nc2cc(-c3cnn4c3CCCC4)c(Cl)cn2)C1` (single isomer, unassigned) [Example 61, trans-3-acetamido-N-(5-chloro-4-(4,5,6,7-tetrahydropyrazolo[1,5-a]pyridin-3-yl)pyridin-2-yl)cyclohexanecarboxamide], for which the IC50 in experiment [2] was more than 3000 nM.

On to `CC(=O)N[C@H]1CCC[C@H](C(=O)Nc2cc(-c3cnn4c3CC(C)(C)C4)c(Cl)cn2)C1` (single isomer, unassigned) [Example 59, trans-3-acetamido-N-(5-chloro-4-(5,5-dimethyl-5,6-dihydro-4H-pyrrolo[1,2-b]pyrazol-3-yl)pyridin-2-yl)cyclohexanecarboxamide], for which, in experiment [2], the IC50 was more than 2440 nM.

For `CC(=O)N[C@H]1CCC[C@H](C(=O)Nc2cc(-c3cnn4c3CCCC4)c(Cl)cn2)C1` (single isomer, unassigned) [Example 62, trans-3-acetamido-N-(5-chloro-4-(4,5,6,7-tetrahydropyrazolo[1,5-a]pyridin-3-yl)pyridin-2-yl)cyclohexanecarboxamide], the IC50 in experiment [2] came to 333 nM.

As to `CC(=O)N[C@@H]1CCC[C@H](C(=O)Nc2cc(-c3cnn4c3CC(C)C4)c(Cl)cn2)C1` (single isomer, unassigned) [Example 41], the IC50 in experiment [1] is 27 nM; in experiment [2], 76 nM; in experiment [3], less than 3 nM.

On to `CC(=O)N[C@@H]1CCC[C@H](C(=O)Nc2cc(-c3cnn4c3CCC(C)C4)c(Cl)cn2)C1` (single isomer, unassigned) [Example 68], for which the IC50 in experiment [1] was 53 nM; in experiment [2] (Homo sapiens, MCF7, 6 h), 131 nM; in experiment [3], less than 3 nM.

As for `CC(=O)N[C@@H]1CCC[C@H](C(=O)Nc2cc(-c3cnn4c3CC(C)(C)C4)c(C)cn2)C1` [Example 47, (1S,3R)-3-acetamido-N-(4-(5,5-dimethyl-5,6-dihydro-4H-pyrrolo[1,2-b]pyrazol-3-yl)-5-methylpyridin-2-yl)cyclohexanecarboxamide], the 50% inhibitory concentration (IC50) in experiment [2] (Homo sapiens, MCF7, 6 h) was determined as 40 nM; in experiment [4] it was 74 nM.

For `CC(=O)N[C@@H]1CCC[C@H](C(=O)Nc2cc(-c3cnn4c3CC(C)(C)C4)c(Cl)cn2)C1` [Example 14, (1S,3R)-3-acetamido-N-(5-chloro-4-(5,5-dimethyl-5,6-dihydro-4H-pyrrolo[1,2-b]pyrazol-3-yl)pyridin-2-yl)cyclohexanecarboxamide], the IC50 is 23 nM in experiment [2] (Homo sapiens, MCF7, 6 h) and 14 nM in experiment [4].

Take `CC1(C)Cc2c(-c3cc(NC(=O)[C@H]4CCC[C@@H](NC(=O)CCO)C4)ncc3Cl)cnn2C1` [Example 52, (1S,3R)—N-(5-chloro-4-(5,5-dimethyl-5,6-dihydro-4H-pyrrolo[1,2-b]pyrazol-3-yl)pyridin-2-yl)-3-(3-hydroxypropanamido)cyclohexanecarboxamide]: the IC50 is 4 nM in experiment [1] and less than 3 nM in experiment [3].

`CC(=O)N[C@@H]1CCC[C@H](C(=O)Nc2cc(-c3cnn4c3CCC(C)C4)c(Cl)cn2)C1` (single isomer, unassigned) [Example 69]: the concentration for half-maximal inhibition (IC50) in experiment [1] is 246 nM; in experiment [2] it was 193 nM; in experiment [3], 5 nM.

For `CC(=O)N[C@H]1CCC[C@@H](C(=O)Nc2cc(-c3cnn4c3CCCC4)c(Cl)cn2)C1` [Example 9, (1R,3S)-3-acetamido-N-(5-chloro-4-(4,5,6,7-tetrahydropyrazolo[1,5-a]pyridin-3-yl)pyridin-2-yl)cyclohexanecarboxamide], the concentration for half-maximal inhibition (IC50) is more than 3000 nM in experiment [2] (Homo sapiens, MCF7, 6 h) and 4090 nM in experiment [4].

Consider `CC(=O)N[C@@H]1CCC[C@H](C(=O)Nc2cc(-c3cnn4c3CCCC4)c(Cl)cn2)C1` [Example 2, (1S,3R)-3-acetamido-N-(5-chloro-4-(4,5,6,7-tetrahydropyrazolo[1,5-a]pyridin-3-yl)pyridin-2-yl)cyclohexanecarboxamide], for which the 50% inhibitory concentration (IC50) was found to be 130 nM in experiment [2] (Homo sapiens, MCF7, 6 h) and 120 nM in experiment [4].

For `COC1CCn2ncc(-c3cc(NC(=O)[C@H]4CCC[C@@H](NC(C)=O)C4)ncc3Cl)c2C1` (single isomer, unassigned) [Example 73], the concentration for half-maximal inhibition (IC50) in experiment [1] was 39 nM; in experiment [2], 218 nM; in experiment [3] it was less than 3 nM.
